Source: article PMC12595484, “Optimizing multifunctional fluorescent ligands for intracellular labeling” (Proceedings of the National Academy of Sciences of the …, 2025)

System: mitochondria from HEK293T cells expressing OMP25–msGFP–HaloTag
Assay: Affinity capture of mitochondria with streptavidin beads, in-gel fluorescence
Type: cell-based
Details: for capture efficiency: 100 nM ligand, mean ± SEM; for mitochondria pulldown efficiency at 10-fold higher concentration: 1 µM ligand vs 100 nM
Experimental: We then used 15HTL and 16HTL to purify mitochondria from these cells by incubation followed by washing and cell lysis. The crude supernatant was incubated with streptavidin-coated magnetic microbeads and washed. The bead-bound mitochondria were lysed, and the resulting solution was analyzed by SDS–PAGE/in-gel fluorescence (Fig. 5 A and B). […] The lower in-gel fluorescence brightness for the wash and bound fractions of 15HTL or 16HTL compared to the wash and bound fractions of their parent dyes 5HTL or 6HTL (Fig. 5 B and C) stems from the variability of transient transfection and band broadening due to the larger ligand. […]
Affinity capture and in-gel fluorescence quantification. Affinity capture pulldown isolation experiments of biotin-labeled HaloTag fusion proteins were performed on ice-cold isolation buffer (IB) consisting of KCl (0.18 M), ethylene glycol-bis(β-aminoethyl ether)-N,N,N′,N′-tetraacetic acid (EGTA; 1 mM), 3-(N-morpholino)propanesulfonic acid (MOPS; 5 mM); the pH was adjusted to pH = 7.35 using KOH(aq).15 StrepTactin Microbeads (IBA Lifesciences, 6-5510-050) were used as capture reagents as these beads had lowest amount of background observed in our hands. These beads were kept at 4 °C and blocked in IB buffer with PMSF and 1% (v/v) bovine serum albumin (BSA; Jackson ImmunoResearch, 001-000-162) with rotation at 4 °C for 30 min. HEK293T cells were scraped with 200 µL IB and homogenized using 12 strokes with a 27G syringe. The resulting homogenate was spun at 4 °C at 800 g for 5 min to pellet large cellular debris. 50 µL of freshly blocked StrepTactin microbeads were added to the supernatant and incubated for 30 min at 4 °C with slow rotation. After incubation, tubes were placed in DynaMag2 (ThermoFisher, 12321D) magnetic racks and washed twice with IB+PMSF. All wash steps were kept at 4 °C (cold room).
The post-bead supernatant and wash volumes were pooled and spun at 15,000 g for 12 min. This last step pelleted the unbound mitochondria for final analysis of capture efficiency. The bead fraction and the pooled/pelleted fraction were then solubilized using the lysis buffer containing 1× PBS, 2% (v/v) SDS, 1% (v/v) Triton x-100, 10 mM EDTA, and protease inhibitors (2 mM PMSF, aprotinin, leupeptin, and pepstatin A). Samples were then incubated at 50 °C for 3–4 min after the addition of Laemmli sample buffer (SB; Bio-Rad, 1610747) with β-mercaptoethanol (Bio-Rad, 1610710). For protein detection, 10–20 µL of the sample was subjected to SDS-PAGE, using 10% Tris-Glycine gels (TGX) (Bio-Rad, 5671034) with Tris-Glycine buffer (Bio-Rad, 1610732). The affinity capture pulldown efficiency was monitored using in-gel fluorescence. The msGFP signal from HaloTag-TEV-4×GS-msGFP-mito after cell lysis and SDS-PAGE was analyzed, in-gel, using a Bio-Rad Chemidoc MP imager (Bio-Rad) through GFP fluorescence excitation and emission filters. Data were quantified by densitometry using Fiji.14 Capture efficiency was calculated comparing the total GFP signal recovered from StrepTactin beads vs the signal recovered from the high speed spin of the bead supernatant and pooled wash volumes. […]

Row | Structure (SMILES) | protein capture (biotin-free ligands) | capture efficiency | mitochondria pulldown efficiency at 10-fold higher concentration
1 | C[Si]1(C)c2cc(N3CC(F)C3)ccc2C2(OC(=O)c3ccc(C(=O)NCCOCCOCCCCCCCl)cc32)c2ccc(N3CC(F)C3)cc21 [6HTL, JF635–HaloTag ligand, reference compound] | no appreciable protein capture |  | 
2 | C[Si]1(C)C2=CC(=[N+]3CC(C(=O)NCCOCCOCCNC(=O)CCCC[C@@H]4SC[C@@H]5NC(=O)N[C@@H]54)C3)C=CC2=C(c2cc(C(=O)NCCOCCOCCCCCCCl)ccc2C(=O)[O-])c2ccc(N3CCC3)cc21 (some centres unmarked) [15HTL, biotin–JF646–HaloTag ligand] |  | 84.2 ± 1.8% | did not increase mitochondria pulldown efficiency
3 | C[Si]1(C)C2=CC(=[N+]3CC(F)(C(=O)NCCOCCOCCNC(=O)CCCC[C@@H]4SC[C@@H]5NC(=O)N[C@@H]54)C3)C=CC2=C(c2cc(C(=O)NCCOCCOCCCCCCCl)ccc2C(=O)[O-])c2ccc(N3CC(F)C3)cc21 (some centres unmarked) [16HTL, biotin–JF635–HaloTag ligand] |  | 88.2 ± 1.1% | did not increase mitochondria pulldown efficiency
